Data taken from patent publication US20120255853A1, “Method for Producing Superoxide, Method for Evaluating Superoxide Scavenging Ability, Device for Producing Superoxide, and Device for Evaluating Superoxide Scavenging Ability” (Sapporo Medical University, priority 2009, published 2012).

Key:
[1] = Inhibition of radical generation by SOD, superoxide generated by light irradiation of riboflavin (ESR); type: biochemical
Experimental: To the aqueous solution thus prepared, superoxide dismutase (SOD) (Sigma), which is an enzyme that specifically scavenges superoxide, was added at 10 U/mL to separately prepare an aqueous solution with added SOD.
The aqueous solutions prepared in the present Example (1) (aqueous solutions with or without SOD) were each introduced into the sample tube of the electron spin resonance device JES-RE1X (JEOL Ltd.). Using a xenon lamp, the sample tube was irradiated with visible light of 1500 lux for 30 seconds. Subsequently, a measurement was made by ESR under the following measurement conditions to obtain a spectrum. The spectrum of the SOD-free aqueous solution was obtained as Spectrum A, and the spectrum of the aqueous solution with added SOD was obtained as Spectrum B. The results thus obtained are shown in FIG. 10. […]
Following a similar operation to Example 1 (2), each of the aqueous solutions thus prepared was measured by ESR to obtain a spectrum. Based on the spectrum thus obtained, the amount of a radical generated was quantified.
Based on the quantification results of the amount of a radical generated in the present Examples (1) and (2), the radical generation-inhibitory rate by SOD was calculated by the following formula 5. […]

[2] = Inhibition of radical generation by SOD, superoxide generated by xanthine oxidase (ESR); type: biochemical; conditions: SOD 0.5, 1, 1.5 U/mL; hypoxanthine 0.39 mmol/L, xanthine oxidase 0.2 U/mL; compared with riboflavin system
Experimental: Into a 50 mmol/L phosphate buffer with pH 7.4, hypoxanthine, CYPMPO (Radical Research Inc.), and diethylenetriaminopentaacetic acid (DETAPAC) were each added at 0.39 mmol/L, 10 mmol/L, and 0.1 mmol/L, respectively, to prepare an aqueous solution (SOD-free aqueous solution). Further, to this aqueous solution, SOD (Sigma) was added at a concentration of 0.5 U/mL, 1 U/mL, and 1.5 U/mL to separately prepare aqueous solutions with added SOD.
To each of the SOD-free aqueous solution and aqueous solutions with added SOD thus prepared, xanthine oxidase was added at 0.2 U/mL. Following a similar operation to Example 1 (2), each of the aqueous solutions was measured by ESR to obtain a spectrum. Subsequently, based on the spectrum thus obtained, the amount of a radical generated was quantified. Measurement by ESR was performed 60 seconds after the addition of xanthine oxidase.
Based on the quantification results of the amount of a radical generated in the present Examples (1) and (2), the radical generation-inhibitory rate by SOD was calculated by the following formula 5.
Radical generation-inhibitory rate by SOD=(S0−S)/[…] (Formula 5)

Radical generation-inhibitory rate by SOD [2]: approximately the same values
Substance: superoxide dismutase [SOD]
Radical generation-inhibitory rate by SOD ([1]; SOD 0.5, 1, 1.5 U/mL, light irradiation of riboflavin, compared with xanthine oxidase system): approximately the same values | Superoxide scavenging (radicals generated with added SOD) ([1]; SOD 10 U/mL, riboflavin 1 μmol/L, EDTA 5 mmol/L, CYPMPO 10 mmol/L): generated a small amount of EDTA radicals but not superoxide
